The experiment deals with human skin explants. The experiment in a line: Exfoliating action of plant extracts on human skin explants ex vivo (morphology of the stratum corneum). Type of experiment: cell-based. The conditions noted are these: for Exfoliating activity, Result: day 4, compared to control group TJ.

SMILES strings stand for the structures. Entries after “also recorded” stand apart in the source; their conditions may differ.

Method: Particular attention is paid to the morphology of the stratum corneum.
Activity is assessed by examination of the morphology.
The explants were stored in BEM (BIO-EC's Explants Medium) at 37° C. in a humid atmosphere enriched with 5% C02.
The test product is applied topically at a rate of 2 μl per explant, using a spatula to spread, on days 0, 2 and 3.
On day 0, the 3 explants of batch T0 were removed and cut into 2. One portion was fixated in a buffered formalin solution and the second part was frozen at −80° C. At Day 4, the 3 explants of each batch were taken and treated in the same manner.
After a fixation of 24 hours in buffered formalin, the samples were dried and soaked in paraffin using an automatic dehydration system, Leica TP 1020. They were embedded in a resin using a coating system Leica EG 1160.
Slices of 5 microns have been produced using a microtome type Minot Leica RM 2125 and mounted on microscope slides type histological SuperFrost®.
Microscopic observations were performed by optical microscopy, using a Leica Orthoplan microscope and an Olympus BX43. The shots were made with an Olympus DP72 camera and Cell ^ D software.
Paraffin sections were stained with Masson's trichrome stain, Goldner variant. Microscopic examination was carried out to assess the general morphology of the dermal and epidermal structures.
Particular attention was paid to the morphology of the Stratum Corneum.

As for `O=C(O)c1ccccc1O` [Product P1, Natural Salicylic Acid], the “exfoliation of the upper layers of the stratum corneum (morphology)” value (shortened to “exfoliation of the upper layers … (morphology)”) is on record as “appeared normal; also recorded: does not present a significant exfoliating activity” (0.25% (C3), day 4); “appeared normal; also recorded: does not present a significant exfoliating activity” (0.5% (C2), day 4); “light exfoliation of the upper layers” (1% (C1), day 4). Also, the “number of cell layers of the SC” value (1% (C1), day 4) is recorded as “slightly reduced”. The “Exfoliating activity, Result” value (1% (C1)) is reported as 4.
As for `CC(O)C(=O)O` (stereo not drawn) [Product P3, Lactic acid], the “exfoliation of the upper layers … (morphology)” value is listed as “appeared normal; also recorded: no appreciable exfoliating activity” (0.25% (C3), day 4); “very light exfoliation of the upper layers” (0.5% (C2), day 4); “light exfoliation of the upper layers” (1% (C1), day 4). In addition, the “Exfoliating activity, Result” value (0.5% (C2)) turned out to be 2 and the “Exfoliating activity, Result” value (1% (C1)) came out at 4. For the same compound, where the note is “1% (C1), day 4”, the “number of cell layers of the SC” value is “slightly reduced”.
With `O=C(O)CO` [Product P4, glycolic acid], the “exfoliation of the upper layers … (morphology)” value by setting is: (0.25% (C3), day 4) “appeared normal; also recorded: no appreciable exfoliating activity”; (0.5% (C2), day 4) “very light and irregular exfoliation of the upper layers”; (1% (C1), day 4) “light and irregular exfoliation of the upper layers; also recorded: slight irregular exfoliation”. The “Exfoliating activity, Result” value runs as follows: (0.5% (C2)) 3; (1% (C1)) 4.
For the compound `O=C(O)C(Cl)(Cl)Cl` [Product P6, trichloroacetic acid], the “exfoliation of the upper layers … (morphology)” value by setting is: (0.25% (C3), day 4) “appeared normal; also recorded: no significant activity in the exfoliation”; (0.5% (C2), day 4) “light and irregular exfoliation of the upper layers; also recorded: uneven exfoliation”; (1% (C1), day 4) “moderate exfoliation of the upper layers”. The “number of cell layers of the SC” value is “slightly reduced” (0.5% (C2), day 4) and “moderately reduced” (1% (C1), day 4). Moreover, the “Exfoliating activity, Result” value is, setting by setting: (0.5% (C2)) 4; (1% (C1)) 6. In addition, the “exfoliating activity, comparison of products” value (especially samples of 1% concentration, day 4) is listed as “best exfoliating activity”.

Source of the values: patent publication US11033597B2, “Dermatological kit comprising compositions based on hibiscus flower and buriti oil” (MEDICAL BRANDS RESEARCH B.V., priority 2014, dated 2021).
